{"source": "ChEMBL document CHEMBL2073836", "about": "“Interactions of nonsteroidal anti-inflammatory drugs with rat renal organic anion transporter, OAT-K1” (J Pharmacol Exp Ther, 1997)", "type_in_all_cases": "functional, cell-based", "key": {"[1]": {"biological_target": "T1, Solute carrier organic anion transporter family member 1A3 (Rattus norvegicus, UniProt P70502)", "T1 sequence (P70502 whole entry)": "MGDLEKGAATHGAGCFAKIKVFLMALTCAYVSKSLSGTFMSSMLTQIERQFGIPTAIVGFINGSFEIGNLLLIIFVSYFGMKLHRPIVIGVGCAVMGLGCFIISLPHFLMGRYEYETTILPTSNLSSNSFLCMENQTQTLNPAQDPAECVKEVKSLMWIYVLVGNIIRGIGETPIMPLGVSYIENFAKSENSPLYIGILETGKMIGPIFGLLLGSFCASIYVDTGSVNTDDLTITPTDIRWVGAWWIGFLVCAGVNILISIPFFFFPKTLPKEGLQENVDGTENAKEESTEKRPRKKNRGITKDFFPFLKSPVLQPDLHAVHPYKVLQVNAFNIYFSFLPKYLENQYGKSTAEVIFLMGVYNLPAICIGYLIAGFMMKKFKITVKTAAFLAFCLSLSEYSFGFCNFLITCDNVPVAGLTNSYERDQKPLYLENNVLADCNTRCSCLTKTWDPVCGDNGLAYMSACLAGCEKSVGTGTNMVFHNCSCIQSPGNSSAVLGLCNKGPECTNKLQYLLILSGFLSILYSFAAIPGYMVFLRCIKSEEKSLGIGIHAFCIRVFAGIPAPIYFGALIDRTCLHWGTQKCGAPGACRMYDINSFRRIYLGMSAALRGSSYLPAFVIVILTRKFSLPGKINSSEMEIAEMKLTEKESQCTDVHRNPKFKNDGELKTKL", "test": "TP_TRANSPORTER: inhibition of MTX uptake (MTX: 0.1 uM, Flufenamate: 1000 uM) in OAT-K1-expressing LLC-PK1 cells", "conditions": "pig, llc-pk1, 1000 µM"}, "[2]": {"biological_target": "T1, Solute carrier organic anion transporter family member 1A3", "test": "TP_TRANSPORTER: inhibition of MTX uptake (MTX: 0.1 uM, Phenylbutazone: 1000 uM) in OAT-K1-expressing LLC-PK1 cells", "conditions": "pig, llc-pk1, 1000 µM"}, "[3]": {"biological_target": "T1, Solute carrier organic anion transporter family member 1A3", "test": "TP_TRANSPORTER: inhibition of MTX uptake in OAT-K1-expressing LLC-PK1 cells"}, "[4]": {"biological_target": "T1, Solute carrier organic anion transporter family member 1A3", "test": "TP_TRANSPORTER: inhibition of MTX uptake (MTX: 0.1 uM, Ibuprofen: 1000 uM) in OAT-K1-expressing LLC-PK1 cells", "conditions": "pig, llc-pk1, 1000 µM"}}, "data": [{"smiles": "O=C(O)c1ccccc1Nc1cccc(C(F)(F)F)c1", "note": "[FLUFENAMIC ACID]", "values": [{"measurement": "Activity", "setting": "[1]", "value": "inhibitor [(at a rough estimate) 55 % of control]"}]}, {"smiles": "CCCCC1C(=O)N(c2ccccc2)N(c2ccccc2)C1=O", "note": "[PHENYLBUTAZONE]", "values": [{"measurement": "Activity", "setting": "[2]", "value": "inhibitor [(at a rough estimate) 70 % of control]"}]}, {"smiles": "COc1ccc2c(c1)c(CC(=O)O)c(C)n2C(=O)c1ccc(Cl)cc1", "note": "[INDOMETHACIN]", "values": [{"measurement": "Ki", "setting": "[3]", "value": 1000, "unit": "µM"}]}, {"smiles": "CC(C(=O)O)c1cccc(C(=O)c2ccccc2)c1", "note": "(stereo not given) [KETOPROFEN]", "values": [{"measurement": "Ki", "setting": "[3]", "value": 1900, "unit": "µM"}]}, {"smiles": "CC(C)Cc1ccc(C(C)C(=O)O)cc1", "note": "(stereo not given) [IBUPROFEN]", "values": [{"measurement": "Activity", "setting": "[4]", "value": "inhibitor [(at a rough estimate) 65 % of control]"}]}]}
